Like-named read-outs stand apart in the source and are kept apart here.
Experiments:
SHIP2 = molecular target: T1, SHIP2 (Homo sapiens, UniProt O15357); test: Malachite green phosphatase release assay, SHIP2; assay type: biochemical; settings: for inhibition at 250 µM: read-out: Malachite (250 µM) % Inhib. SHIP2; for inhibition at 500 µM: read-out: Malachite (500 µM) % Inhib. SHIP2; for activity against SHIP2 (in words): summary of Table 1
T1 construct: purchased Echelon Biosciences
T1 sequence (O15357 1-1258): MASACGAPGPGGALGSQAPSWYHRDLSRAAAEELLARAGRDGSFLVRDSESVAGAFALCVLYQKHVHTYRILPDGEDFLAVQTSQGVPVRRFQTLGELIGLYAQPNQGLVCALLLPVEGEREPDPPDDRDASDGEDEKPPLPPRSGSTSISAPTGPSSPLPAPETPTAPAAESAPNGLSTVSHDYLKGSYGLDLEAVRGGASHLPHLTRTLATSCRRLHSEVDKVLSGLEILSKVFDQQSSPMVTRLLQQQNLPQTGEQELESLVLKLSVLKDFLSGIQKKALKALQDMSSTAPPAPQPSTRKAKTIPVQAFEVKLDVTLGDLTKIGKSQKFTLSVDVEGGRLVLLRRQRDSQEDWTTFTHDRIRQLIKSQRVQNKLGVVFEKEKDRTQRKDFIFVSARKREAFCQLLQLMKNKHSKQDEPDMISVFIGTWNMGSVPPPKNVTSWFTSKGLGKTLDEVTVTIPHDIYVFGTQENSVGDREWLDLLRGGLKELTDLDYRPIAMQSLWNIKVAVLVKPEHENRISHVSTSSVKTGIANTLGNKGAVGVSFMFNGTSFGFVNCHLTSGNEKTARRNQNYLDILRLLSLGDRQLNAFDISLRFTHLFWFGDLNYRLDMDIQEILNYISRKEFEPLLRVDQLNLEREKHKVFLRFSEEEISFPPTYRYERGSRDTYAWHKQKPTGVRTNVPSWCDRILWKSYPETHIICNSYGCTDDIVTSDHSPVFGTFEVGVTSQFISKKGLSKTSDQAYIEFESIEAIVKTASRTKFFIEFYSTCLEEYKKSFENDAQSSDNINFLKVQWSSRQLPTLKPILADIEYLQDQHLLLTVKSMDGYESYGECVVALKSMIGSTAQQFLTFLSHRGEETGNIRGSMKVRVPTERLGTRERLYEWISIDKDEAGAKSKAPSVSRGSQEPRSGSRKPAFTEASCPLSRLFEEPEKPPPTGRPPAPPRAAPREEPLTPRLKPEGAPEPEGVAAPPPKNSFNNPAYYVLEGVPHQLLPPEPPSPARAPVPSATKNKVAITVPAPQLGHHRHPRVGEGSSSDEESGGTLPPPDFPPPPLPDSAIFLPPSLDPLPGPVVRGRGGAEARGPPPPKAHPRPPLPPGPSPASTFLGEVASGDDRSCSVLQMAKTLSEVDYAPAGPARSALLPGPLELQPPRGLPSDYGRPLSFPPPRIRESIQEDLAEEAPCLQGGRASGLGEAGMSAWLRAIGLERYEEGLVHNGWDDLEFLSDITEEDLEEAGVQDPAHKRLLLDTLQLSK
Description: These compounds were then tested for their activity against the two SHIP paralogs, SHIP1 and SHIP2 in the colorimetric malachite green phosphatase assay. The malachite green assay detects the amount of free phosphate produced from enzymatic reactions with SHIP and an inositol phospholipid substrate.
(§1) 4.7. Malachite Green Phosphatase Release Assays
(§2) Malachite green assays to monitor phosphatase release (Echelon Biosciences) were performed with recombinant human truncated SHIP1 (tSHIP1) and SHIP2 (Echelon Biosciences). Serial dilutions of the compounds dissolved in DMSO were added to the recombinant enzymes diluted in reaction buffer Rx (50 mM Hepes pH 7.4, 150 mM NaCl, 1 mM MgCl2, 0.25 mM EDTA) in triplicate reaction wells in 96-well plates. After incubation for 2 min at room temperature, 2.5 µL of 1 mM phosphatidylinositol 3,4,5-trisphosphate diC8 (PI(3,4,5)P3-diC8, Echelon Biosciences) was added to each reaction to a final concentration of 100 µM in a final volume of 25 µL /well. Following a 20 min incubation at 37 °C, 100 µL of Malachite Green solution (Echelon Biosciences) was added to each well and the plates were incubated at room temperature in the dark for 15 min. Plates were then read at 620 nm on a plate reader (Synergy 2, BioTek, Santa Clara, CA, USA). In addition, 3α-Aminocholestane, a known SHIP1 inhibitor, and AS1949490, a known SHIP2 inhibitor, were used as positive controls.

[1] = test system: recombinant human truncated SHIP1 (tSHIP1); test: Malachite green phosphatase release assay, SHIP1; assay type: biochemical; settings: for Malachite (250 µM) % Inhib. SHIP1: 250 µM compound; for Malachite (500 µM) % Inhib. SHIP1: 500 µM compound; for activity against SHIP1 (in words): summary of Table 1
Description: These compounds were then tested for their activity against the two SHIP paralogs, SHIP1 and SHIP2 in the colorimetric malachite green phosphatase assay. The malachite green assay detects the amount of free phosphate produced from enzymatic reactions with SHIP and an inositol phospholipid substrate. The Malachite assay is useful for ruling out compounds that are fluorescent or have aggregation issues and is inexpensive, so it was utilized as the primary screen even though it is not as sensitive as other assays.
as §1, §2

Structure (SMILES)	inhibition at 250 µM (SHIP2) [%]	inhibition at 500 µM (SHIP2) [%]	activity against SHIP2 (in words) (SHIP2)	Malachite (250 µM) % Inhib. SHIP1 [1] [%]	Malachite (500 µM) % Inhib. SHIP1 [1] [%]	activity against SHIP1 (in words) [1]	inhibition at 250 µM (SHIP2; 250 µM compound) [%]	inhibition at 500 µM (SHIP2; 500 µM compound) [%]
CSc1ccc2[nH]c(C)c(CCN)c2c1.Cl [Compound 7f, 2-(2-Methyl-5-(methylthio)-1H-indol-3-yl)ethanaminium chloride]	0	2	virtually no activity	0	0	virtually no activity	–	–
CNCCc1c(C)n(Cc2ccccc2Cl)c2ccc(SC)cc12 [Compound 13, (2{1-[(2-Chlorophenyl)methyl]-2-methyl-5-(methylsulfanyl-1H-indol-3-yl}ethyl)methylaminium chloride]	–	–	–	0	9	no inhibition	14	38
CSc1ccc2c(c1)c(CCN(C)C)c(C)n2Cc1ccccc1Cl [Compound 14, (2{1-[(2-Chlorophenyl)methyl]-2-methyl-5-(methylsulfanyl-1H-indol-3-yl}ethyl)dimethylaminium chloride]	–	–	inactive	0	5	inactive	0	6
CSc1ccc2c(c1)c(CCNS(C)(=O)=O)c(C)n2Cc1ccccc1Cl [Compound 15, N-(2{1-[(2-Chlorophenyl)methyl]-2-methyl-5-(methylsulfanyl)-1H-indol-3-yl}ethyl) methanesulfonamide]	–	–	–	−10	−27	weak agonist	–	–
CCNCCc1c(C)n(Cc2ccccc2Cl)c2ccc(SC)cc12 [Compound 17, (2{1-[(2-Chlorophenyl)methyl]-2-methyl-5-(methylsulfanyl-1H-indol-3-yl}ethyl)ethylaminium chloride]	–	–	–	1	21	no inhibition	13	47

From paper PMC9738565, “N1-Benzyl Tryptamine Pan-SHIP1/2 Inhibitors: Synthesis and Preliminary Biological Evaluation as Anti-Tumor Agents” (Molecules, 2022)
